The record followed here is US9796711B2, “Substituted pyrazolo[3,4-b]pyridin-6-carboxylic acids and method of use” (AbbVie S.àr.l., priority 2015, dated 2017).

What is called EC50 is the concentration giving half of the maximal effect.

For assay [1], the target named is T1, ΔF508-CFTR (Homo sapiens, UniProt P13569, DEL508-508).
T1 construct: host or cells: CFBE41o-, doxycycline-inducible
Description: CFTR cell surface levels using HRP-tagged ΔF508-CFTR expressing CFBE cells, in the presence of a co-corrector. It counts as cell-based. To be noted: HRP-tagged ΔF508-CFTR expressing CFBE cells, in the presence of 3 μM co-corrector; for EC50: read-out: EC50. The method in brief: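 Cells were seeded with 0.5 μg/mL doxycycline and held 68 h at 37 °C. Test compounds plus 3 μM co-corrector (final 0.1% DMSO) were then added for 20 h at 33 °C. Washed cells received HRP substrate, and luminescence was normalized between DMSO and 3 μM co-corrector controls.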

Assay [2] has as its target T1, ΔF508-CFTR. The assay can be described thus: CFTR cell surface levels using HRP-tagged ΔF508-CFTR expressing CFBE cells, intrinsic corrector capacity. The class given is cell-based. To be noted: for EC50: read-out: EC50. The method in brief:
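Here the cells express ΔF508-CFTR with horseradish peroxidase inserted in extracellular loop 4, so only rescued channel at the surface gives luminescent signal. Compounds act on their own, 20 h at the reduced temperature of 33 °C; values are percent activity relative to DMSO and a 3 μM corrector.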

The mark [3] stands for this setting: HRP-tagged ΔF508-CFTR CFBE41o- cells, compounds alone (intrinsic corrector capacity), 20 hours at 33° C., positive control 3 μM corrector.
[4] abbreviates: HRP-tagged ΔF508-CFTR CFBE41o- cells, compounds alone (intrinsic corrector capacity), 20 hours at 33° C.
The mark [5] stands for this setting: HRP-tagged ΔF508-CFTR expressing CFBE cells, intrinsic corrector capacity (no co-corrector), 33° C., 20 hours.
Setting [6] is: HRP-tagged ΔF508-CFTR CFBE cells, compound alone (intrinsic corrector capacity), 20 hours at 33° C.

T1 sequence (P13569 with tags, fused parts or gaps DEL508-508): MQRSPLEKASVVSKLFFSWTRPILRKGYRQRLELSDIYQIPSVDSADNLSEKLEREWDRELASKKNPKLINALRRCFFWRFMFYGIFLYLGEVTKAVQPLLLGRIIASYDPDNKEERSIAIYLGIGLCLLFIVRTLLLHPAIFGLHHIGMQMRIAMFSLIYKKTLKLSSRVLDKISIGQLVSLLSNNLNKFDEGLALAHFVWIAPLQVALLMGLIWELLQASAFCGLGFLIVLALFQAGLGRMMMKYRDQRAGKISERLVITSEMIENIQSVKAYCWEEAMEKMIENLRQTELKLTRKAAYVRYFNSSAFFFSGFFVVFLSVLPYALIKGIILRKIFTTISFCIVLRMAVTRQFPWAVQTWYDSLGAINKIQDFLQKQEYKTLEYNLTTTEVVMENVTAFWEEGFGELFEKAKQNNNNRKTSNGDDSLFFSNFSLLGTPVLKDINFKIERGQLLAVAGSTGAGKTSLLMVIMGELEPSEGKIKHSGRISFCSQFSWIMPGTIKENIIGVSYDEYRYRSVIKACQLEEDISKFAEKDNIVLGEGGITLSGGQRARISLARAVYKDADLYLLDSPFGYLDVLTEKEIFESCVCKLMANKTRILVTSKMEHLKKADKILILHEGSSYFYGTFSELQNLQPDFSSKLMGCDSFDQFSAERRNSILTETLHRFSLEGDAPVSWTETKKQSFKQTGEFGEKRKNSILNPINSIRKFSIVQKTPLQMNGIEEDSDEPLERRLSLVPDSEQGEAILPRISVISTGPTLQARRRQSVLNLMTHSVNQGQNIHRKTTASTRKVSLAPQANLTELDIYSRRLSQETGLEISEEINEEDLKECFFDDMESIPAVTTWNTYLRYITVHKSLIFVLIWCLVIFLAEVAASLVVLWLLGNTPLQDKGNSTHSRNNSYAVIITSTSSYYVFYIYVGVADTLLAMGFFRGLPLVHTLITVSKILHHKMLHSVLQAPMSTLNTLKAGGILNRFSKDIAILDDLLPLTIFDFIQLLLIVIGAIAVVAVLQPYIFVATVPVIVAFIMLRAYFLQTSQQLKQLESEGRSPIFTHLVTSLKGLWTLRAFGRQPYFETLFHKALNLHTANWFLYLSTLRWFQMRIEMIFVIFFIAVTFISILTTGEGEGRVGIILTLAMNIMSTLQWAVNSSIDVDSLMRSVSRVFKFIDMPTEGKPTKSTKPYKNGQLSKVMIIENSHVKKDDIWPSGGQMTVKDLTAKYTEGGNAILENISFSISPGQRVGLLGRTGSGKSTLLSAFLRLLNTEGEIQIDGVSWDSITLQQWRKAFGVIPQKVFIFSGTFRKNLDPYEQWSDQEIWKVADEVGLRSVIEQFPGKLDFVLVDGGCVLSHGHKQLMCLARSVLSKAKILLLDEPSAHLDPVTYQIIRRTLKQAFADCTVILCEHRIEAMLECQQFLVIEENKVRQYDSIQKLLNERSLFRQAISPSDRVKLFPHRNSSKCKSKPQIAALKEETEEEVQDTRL

Take `COC1CCCN(c2cc(C(=O)O)nc3c2c(C(C)C)nn3-c2cccc(C)c2)C1` (stereo not shown) [compound 190, 4-(3-methoxypiperidin-1-yl)-1-(3-methylphenyl)-3-(propan-2-yl)-1H-pyrazolo[3,4-b]pyridine-6-carboxylic acid]: the figures for the “% Activation” value at ΔF508-CFTR [1] and at ΔF508-CFTR [2] (setting [3]) were 301.85% and 136.12%, respectively. The results for the EC50 on ΔF508-CFTR [1] and at ΔF508-CFTR [2] (setting [4]) were 0.634 µM and 0.929 µM, respectively.
With `CN(c1cc(C(=O)O)nc2c1c(C1CCC1)nn2-c1ccccc1)[C@H]1C[C@@H](O)C1` [compound 533, 3-cyclobutyl-4-[(cis-3-hydroxycyclobutyl)(methyl)amino]-1-phenyl-1H-pyrazolo[3,4-b]pyridine-6-carboxylic acid], the “% Activation” value at ΔF508-CFTR [1] is on record as 315.85%; on ΔF508-CFTR [2] (setting [5]), 114.5%. For the same compound, the figures for the EC50 at ΔF508-CFTR [1] and on ΔF508-CFTR [2] (setting [5]) were 1.23 µM and 3.21 µM, respectively.
Consider `CC(C)c1nn(-c2ccc(F)cc2)c2nc(C(=O)O)cc(N3CCC4(CCN(C)CC4)CC3)c12` [compound 781, 1-(4-fluorophenyl)-4-(9-methyl-3,9-diazaspiro[5.5]undecan-3-yl)-3-(propan-2-yl)-1H-pyrazolo[3,4-b]pyridine-6-carboxylic acid], for which the “% Activation” value on ΔF508-CFTR [1] came out at 368.7%; at ΔF508-CFTR [2] (setting [5]) it was 154%. Moreover, the EC50 on ΔF508-CFTR [1] is 1.56 µM; on ΔF508-CFTR [2] (setting [5]), 1.67 µM.
The corresponding values for `O=C(O)c1cc(OCCN2CCCCC2)c2c(C3CCC3)nn(-c3ccccc3)c2n1` [compound 639, 3-cyclobutyl-1-phenyl-4-[2-(piperidin-1-yl)ethoxy]-1H-pyrazolo[3,4-b]pyridine-6-carboxylic acid] are 261.7%, 96.54%, 1.67 µM and 2.21 µM.
In the case of `CC(C)c1nn(-c2cccc(N3CCOCC3)c2)c2nc(C(=O)O)cc(-c3ccc(N(C)C4CCOCC4)nc3)c12` [compound 187, 4-{6-[methyl(oxan-4-yl)amino]pyridin-3-yl}-1-[3-(morpholin-4-yl)phenyl]-3-(propan-2-yl)-1H-pyrazolo[3,4-b]pyridine-6-carboxylic acid], the “% Activation” value on ΔF508-CFTR [1] is reported as 522%; on ΔF508-CFTR [2] (setting [3]), 367.4%. Also, the EC50 stood at 0.565 µM on ΔF508-CFTR [1] and 0.674 µM at ΔF508-CFTR [2] (setting [4]).
On to `CC(C)c1nn(-c2ccnc(N3CCCC3)c2)c2nc(C(=O)O)cc(-c3ccc(N4CCC(C#N)CC4)nc3)c12` [compound 369, 4-[6-(4-cyanopiperidin-1-yl)pyridin-3-yl]-3-(propan-2-yl)-1-[2-(pyrrolidin-1-yl)pyridin-4-yl]-1H-pyrazolo[3,4-b]pyridine-6-carboxylic acid], for which the “% Activation” value on ΔF508-CFTR [1] is listed as 389.2%; on ΔF508-CFTR [2] (setting [3]), 251.6%. For the same compound, the concentration for a half-maximal effect (EC50) came to 0.471 µM on ΔF508-CFTR [1] and 0.843 µM on ΔF508-CFTR [2] (setting [4]).
As for `CC(=O)N1CCC(n2nc(C(C)C)c3c(-c4ccc(N5CCOCC5)cc4)cc(C(=O)O)nc32)CC1` [compound 71, 1-(1-acetylpiperidin-4-yl)-4-[4-(morpholin-4-yl)phenyl]-3-(propan-2-yl)-1H-pyrazolo[3,4-b]pyridine-6-carboxylic acid], the “% Activation” value at ΔF508-CFTR [1] turned out to be 126.8%; on ΔF508-CFTR [2] (setting [3]), 17.23%. For the same compound, the EC50 at ΔF508-CFTR [1] and at ΔF508-CFTR [2] (setting [4]) was > 10 µM throughout.
With `Cc1nn(-c2ccccc2)c2nc(C(=O)O)cc(-c3ccc(N4CCC(N(C)C)C4)cc3)c12` (stereo not shown) [compound 217, 4-{4-[3-(dimethylamino)pyrrolidin-1-yl]phenyl}-3-methyl-1-phenyl-1H-pyrazolo[3,4-b]pyridine-6-carboxylic acid], the results for the “% Activation” value at ΔF508-CFTR [1] and on ΔF508-CFTR [2] (setting [3]) were 342.3% and 129.7%, respectively. The half-maximal effective concentration (EC50) on ΔF508-CFTR [1] came out at 1.47 µM; on ΔF508-CFTR [2] (setting [4]), 1.52 µM.
For `Cc1nn(-c2ccccc2)c2nc(C(=O)O)cc(OCCN(CC(C)C)C3CC3)c12` [compound 385, 4-{2-[cyclopropyl(2-methylpropyl)amino]ethoxy}-3-methyl-1-phenyl-1H-pyrazolo[3,4-b]pyridine-6-carboxylic acid] the same measures were 238.75%, 54.89%, 1.67 µM and 1.67 µM.
Regarding `COC1CCN(C2CCN(c3cc(C(=O)O)nc4c3c(OC(C)C)nn4-c3ccc(F)cc3)CC2)CC1` [compound 926, 1-(4-fluorophenyl)-4-(4-methoxy[1,4′-bipiperidin]-1′-yl)-3-[(propan-2-yl)oxy]-1H-pyrazolo[3,4-b]pyridine-6-carboxylic acid], the “% Activation” value on ΔF508-CFTR [1] is on record as 486.6%; at ΔF508-CFTR [2] (setting [6]) it was 240.2%. Besides, the results for the concentration for a half-maximal effect (EC50) at ΔF508-CFTR [1] and on ΔF508-CFTR [2] (setting [6]) were 0.34 µM and 0.521 µM, respectively.
Turning to `COCCN(C)c1cc(C(=O)O)nc2c1c(C1CCC1)nn2-c1ccccc1` [compound 422, 3-cyclobutyl-4-[(2-methoxyethyl)(methyl)amino]-1-phenyl-1H-pyrazolo[3,4-b]pyridine-6-carboxylic acid], the “% Activation” value came to 336.05% on ΔF508-CFTR [1] and 131.9% on ΔF508-CFTR [2] (setting [5]). Moreover, the values for the EC50 at ΔF508-CFTR [1] and on ΔF508-CFTR [2] (setting [5]) were 1 µM and 1.62 µM, respectively.
For `O=C(O)c1cc(N2CCC(N3CCOCC3)CC2)c2c(C3CCC3)nn(-c3ccnc(OCC4CCOCC4)c3)c2n1` [compound 919, 3-cyclobutyl-4-[4-(morpholin-4-yl)piperidin-1-yl]-1-{2-[(oxan-4-yl)methoxy]pyridin-4-yl}-1H-pyrazolo[3,4-b]pyridine-6-carboxylic acid], on ΔF508-CFTR [1], the “% Activation” value came out at 416.35% and the EC50 is 0.256 µM. Moreover, on ΔF508-CFTR [2] (setting [6]), the “% Activation” value turned out to be 198.2% and the concentration for a half-maximal effect (EC50) turned out to be 0.49 µM.
For the compound `O=C(O)c1cc(OCC2CCCC2(F)F)c2c(C3CCC3)nn(-c3ccccc3)c2n1` (stereo not shown) [compound 486, 3-cyclobutyl-4-[(2,2-difluorocyclopentyl)methoxy]-1-phenyl-1H-pyrazolo[3,4-b]pyridine-6-carboxylic acid], on ΔF508-CFTR [1], the “% Activation” value was found to be 299% and the EC50 amounted to 0.335 µM. Moreover, at ΔF508-CFTR [2] (setting [5]), the “% Activation” value was found to be 127% and the EC50 was found to be 0.603 µM.
For `CC(C)Oc1cc(-n2nc(C3CCC3)c3c(N4CCC(N5CCOCC5)CC4)cc(C(=O)O)nc32)ccn1` [compound 855, 3-cyclobutyl-4-[4-(morpholin-4-yl)piperidin-1-yl]-1-{2-[(propan-2-yl)oxy]pyridin-4-yl}-1H-pyrazolo[3,4-b]pyridine-6-carboxylic acid] the same measures were 490.9%, 0.0872 µM, 304.2% and 0.197 µM.
Consider `O=C(O)c1cc(-c2ccc(N3CCOCC3)cc2)c2c(C3CCC3)nn(-c3ccc(C(F)(F)F)cc3)c2n1` [compound 356, 3-cyclobutyl-4-[4-(morpholin-4-yl)phenyl]-1-[4-(trifluoromethyl)phenyl]-1H-pyrazolo[3,4-b]pyridine-6-carboxylic acid], for which the “% Activation” value at ΔF508-CFTR [1] was 331.9%; at ΔF508-CFTR [2] (setting [3]), 152.8%. Besides, the half-maximal effective concentration (EC50) at ΔF508-CFTR [1] came to 0.428 µM; on ΔF508-CFTR [2] (setting [4]), 0.489 µM.
The corresponding values for `CC(C)(C)OC(=O)N1CC(c2nn(-c3ccccc3)c3nc(C(=O)O)cc(-c4ccc(N5CCOCC5)cc4)c23)C1` [compound 47, 3-[1-(tert-butoxycarbonyl)azetidin-3-yl]-4-[4-(morpholin-4-yl)phenyl]-1-phenyl-1H-pyrazolo[3,4-b]pyridine-6-carboxylic acid] are 390.5%, 183.2%, 0.567 µM and 0.608 µM.
In the case of `COCC1CCN(c2cc(C(=O)O)nc3c2c(C2CCC2)nn3-c2ccnc(OC)c2)CC1` [compound 678, 3-cyclobutyl-4-[4-(methoxymethyl)piperidin-1-yl]-1-(2-methoxypyridin-4-yl)-1H-pyrazolo[3,4-b]pyridine-6-carboxylic acid], on ΔF508-CFTR [1], the “% Activation” value is listed as 373.3% and the EC50 stood at 0.0918 µM. Also, on ΔF508-CFTR [2] (setting [5]), the “% Activation” value was found to be 181.5% and the EC50 was 0.23 µM.
With `CC1(c2nn(-c3ccccc3)c3nc(C(=O)O)cc(-c4ccc(N5CCOCC5)cc4)c23)CC1` [compound 129, 3-(1-methylcyclopropyl)-4-[4-(morpholin-4-yl)phenyl]-1-phenyl-1H-pyrazolo[3,4-b]pyridine-6-carboxylic acid], the “% Activation” value on ΔF508-CFTR [1] is given as 380%; on ΔF508-CFTR [2] (setting [3]), 178.3%. The EC50 was found to be 0.39 µM at ΔF508-CFTR [1] and 0.414 µM on ΔF508-CFTR [2] (setting [4]).
Consider `O=C(O)c1cc(N2CCC(N3CCOCC3)CC2)c2c(C3CCC3)nn(-c3ccnc(C4CCOCC4)c3)c2n1` [compound 819, 3-cyclobutyl-4-[4-(morpholin-4-yl)piperidin-1-yl]-1-[2-(oxan-4-yl)pyridin-4-yl]-1H-pyrazolo[3,4-b]pyridine-6-carboxylic acid], for which, at ΔF508-CFTR [1], the “% Activation” value amounted to 313.1% and the EC50 turned out to be 3.33 µM. Further, at ΔF508-CFTR [2] (setting [5]), the “% Activation” value came to 174.7% and the EC50 worked out at 3.33 µM.
